The supplement of paper PMC10307832

Columns and labels:
Test in all cases: relative viability (nuclei count vs DMSO), 5 days (fraction); higher = more cells survive
LCLC-97TM1 = system: LCLC-97TM1
How it was run: (§1)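 Relative viability is defined as nuclei in treated wells over nuclei in vehicle wells. Duplicate plates were run and medians reported. Lung cancer cell lines in 1536-well plates were dosed by pin tool one day after seeding, with one drug or with a fixed anchor-drug dose plus five library-drug doses (not always all listed) in √10 steps, and nuclei were counted after 5 days.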

201T = system: 201T
How it was run: as §1

NCI-H1666 = system: NCI-H1666
How it was run: as §1

H3255 = system: H3255
How it was run: as §1

LOU-NH91 = system: LOU-NH91
How it was run: as §1

NCI-H650 = system: NCI-H650
How it was run: as §1

NCI-H2087 = system: NCI-H2087
How it was run: as §1

NCI-H2085 = system: NCI-H2085
How it was run: as §1

NCI-H1437 = system: NCI-H1437
How it was run: as §1

BEN = system: BEN
How it was run: as §1

EPLC-272H = system: EPLC-272H
How it was run: as §1

EKVX = system: EKVX
How it was run: as §1

PC-3 [JPC-3] = system: PC-3 [JPC-3]
How it was run: as §1

NCI-H647 = system: NCI-H647
How it was run: as §1

NCI-H1975 = system: NCI-H1975
How it was run: as §1

LU99A = system: LU99A
How it was run: as §1

COR-L 105 = system: COR-L 105
How it was run: as §1

HCC-44 = system: HCC-44
How it was run: as §1

HCC-827 = system: HCC-827
How it was run: as §1

SW 1573 = system: SW 1573
How it was run: as §1

Nc1ccn([C@@H]2O[C@H](CO)[C@@H](O)[C@@H]2O)c(=O)n1 [Cytarabine] + CC(C)C[C@H](NC(=O)[C@H](Cc1ccccc1)NC(=O)c1cnccn1)B(O)O [Bortezomib] (partner 0.002 µM) showed a relative viability (LCLC-97TM1; first compound 0.005 µM) of 0.277, a relative viability (LCLC-97TM1; first compound 0.01581 µM) of 0.349 and a relative viability (LCLC-97TM1; first compound 0.05 µM) of 0.132. It also gave a relative viability (LCLC-97TM1; first compound 0.1581 µM) of 0.084, a relative viability (LCLC-97TM1; first compound 0.5 µM) of 0.0888 and a relative viability (201T; first compound 0.005 µM) of 1.07. For the same compound, the relative viability (201T; first compound 0.01581 µM) was 1.11, the relative viability (201T; first compound 0.05 µM) was 0.866 and the relative viability (201T; first compound 0.1581 µM) was 1.01. The relative viability (201T; first compound 0.5 µM) was 1, the relative viability (NCI-H1666; first compound 0.005 µM) was 0.7 and the relative viability (NCI-H1666; first compound 0.01581 µM) was 0.705. It also gave a relative viability (NCI-H1666; first compound 0.05 µM) of 0.741, a relative viability (NCI-H1666; first compound 0.1581 µM) of 0.353 and a relative viability (NCI-H1666; first compound 0.5 µM) of 0.318. For the same compound, the relative viability (H3255; first compound 0.005 µM) was 0.745, the relative viability (H3255; first compound 0.01581 µM) was 0.797 and the relative viability (H3255; first compound 0.05 µM) was 0.575. For the same compound, the relative viability (H3255; first compound 0.1581 µM) was 0.517, the relative viability (H3255; first compound 0.5 µM) was 0.468 and the relative viability (LOU-NH91; first compound 0.005 µM) was 0.406. For the same compound, the relative viability (LOU-NH91; first compound 0.01581 µM) was 0.47, the relative viability (LOU-NH91; first compound 0.05 µM) was 0.388 and the relative viability (LOU-NH91; first compound 0.1581 µM) was 0.338. It also gave a relative viability (LOU-NH91; first compound 0.5 µM) of 0.357, a relative viability (NCI-H650; first compound 0.005 µM) of 0.606 and a relative viability (NCI-H650; first compound 0.01581 µM) of 0.486. The relative viability (NCI-H650; first compound 0.05 µM) was 0.349, the relative viability (NCI-H650; first compound 0.1581 µM) was 0.223 and the relative viability (NCI-H650; first compound 0.5 µM) was 0.209. For the same compound, the relative viability (NCI-H2087; first compound 0.005 µM) was 0.631, the relative viability (NCI-H2087; first compound 0.01581 µM) was 1.01 and the relative viability (NCI-H2087; first compound 0.05 µM) was 0.84. It also gave a relative viability (NCI-H2087; first compound 0.1581 µM) of 0.573, a relative viability (NCI-H2087; first compound 0.5 µM) of 0.338 and a relative viability (NCI-H2085; first compound 0.005 µM) of 0.983. For the same compound, the relative viability (NCI-H2085; first compound 0.01581 µM) was 0.913, the relative viability (NCI-H2085; first compound 0.05 µM) was 0.946 and the relative viability (NCI-H2085; first compound 0.1581 µM) was 0.631. The relative viability (NCI-H2085; first compound 0.5 µM) was 0.66, the relative viability (NCI-H1437; first compound 0.005 µM) was 0.334 and the relative viability (NCI-H1437; first compound 0.01581 µM) was 0.287. It also gave a relative viability (NCI-H1437; first compound 0.05 µM) of 0.243, a relative viability (NCI-H1437; first compound 0.1581 µM) of 0.18 and a relative viability (NCI-H1437; first compound 0.5 µM) of 0.16. It also gave a relative viability (BEN; first compound 0.005 µM) of 0.667, a relative viability (BEN; first compound 0.01581 µM) of 0.742 and a relative viability (BEN; first compound 0.05 µM) of 0.413. For the same compound, the relative viability (BEN; first compound 0.1581 µM) was 0.282, the relative viability (BEN; first compound 0.5 µM) was 0.233 and the relative viability (EPLC-272H; first compound 0.005 µM) was 0.906. It also gave a relative viability (EPLC-272H; first compound 0.01581 µM) of 0.831, a relative viability (EPLC-272H; first compound 0.05 µM) of 0.53 and a relative viability (EPLC-272H; first compound 0.1581 µM) of 0.412. For the same compound, the relative viability (EPLC-272H; first compound 0.5 µM) was 0.453, the relative viability (EKVX; first compound 0.005 µM) was 1.22 and the relative viability (EKVX; first compound 0.01581 µM) was 0.947. For the same compound, the relative viability (EKVX; first compound 0.05 µM) was 0.801, the relative viability (EKVX; first compound 0.1581 µM) was 0.361 and the relative viability (EKVX; first compound 0.5 µM) was 0.178. The relative viability (PC-3 [JPC-3]; first compound 0.005 µM) was 0.811, the relative viability (PC-3 [JPC-3]; first compound 0.01581 µM) was 0.795 and the relative viability (PC-3 [JPC-3]; first compound 0.05 µM) was 0.779. The relative viability (PC-3 [JPC-3]; first compound 0.1581 µM) was 0.503, the relative viability (PC-3 [JPC-3]; first compound 0.5 µM) was 0.511 and the relative viability (NCI-H647; first compound 0.005 µM) was 0.695. The relative viability (NCI-H647; first compound 0.01581 µM) was 0.423, the relative viability (NCI-H647; first compound 0.05 µM) was 0.513 and the relative viability (NCI-H647; first compound 0.1581 µM) was 0.113. It also gave a relative viability (NCI-H647; first compound 0.5 µM) of 0.081, a relative viability (NCI-H1975; first compound 0.005 µM) of 0.293 and a relative viability (NCI-H1975; first compound 0.01581 µM) of 0.323. It also gave a relative viability (NCI-H1975; first compound 0.05 µM) of 0.276, a relative viability (NCI-H1975; first compound 0.1581 µM) of 0.23 and a relative viability (NCI-H1975; first compound 0.5 µM) of 0.213. For the same compound, the relative viability (LU99A; first compound 0.005 µM) was 1.14, the relative viability (LU99A; first compound 0.01581 µM) was 1.24 and the relative viability (LU99A; first compound 0.05 µM) was 1.26. For the same compound, the relative viability (LU99A; first compound 0.1581 µM) was 1.01, the relative viability (LU99A; first compound 0.5 µM) was 1.03 and the relative viability (COR-L 105; first compound 0.005 µM) was 0.676. For the same compound, the relative viability (COR-L 105; first compound 0.01581 µM) was 0.699, the relative viability (COR-L 105; first compound 0.05 µM) was 0.464 and the relative viability (COR-L 105; first compound 0.1581 µM) was 0.399. For the same compound, the relative viability (COR-L 105; first compound 0.5 µM) was 0.285, the relative viability (HCC-44; first compound 0.005 µM) was 0.828 and the relative viability (HCC-44; first compound 0.01581 µM) was 0.895. For the same compound, the relative viability (HCC-44; first compound 0.05 µM) was 0.793, the relative viability (HCC-44; first compound 0.1581 µM) was 0.425 and the relative viability (HCC-44; first compound 0.5 µM) was 0.405. The relative viability (HCC-827; first compound 0.005 µM) was 0.996, the relative viability (HCC-827; first compound 0.01581 µM) was 0.674 and the relative viability (HCC-827; first compound 0.05 µM) was 0.474. For the same compound, the relative viability (HCC-827; first compound 0.1581 µM) was 0.459, the relative viability (HCC-827; first compound 0.5 µM) was 0.329 and the relative viability (SW 1573; first compound 0.005 µM) was 1.1. It also gave a relative viability (SW 1573; first compound 0.01581 µM) of 0.847, a relative viability (SW 1573; first compound 0.05 µM) of 0.675 and a relative viability (SW 1573; first compound 0.1581 µM) of 0.461. For the same compound, the relative viability (SW 1573; first compound 0.5 µM) was 0.159.
